Experimental data taken from patent US10167262B2, “Herbicidal substituted 3-arylpyrazoles” (FMC CORPORATION, priority 2014, dated 2019).
Where two headings read alike, the source gives them in different places.

How the values were obtained:
Assay in all cases: Test C pre-/postemergence greenhouse test, plant response rating 0-100
Type in all cases: in vivo
[1] = test system: Italian ryegrass (Lolium multiflorum); details: Lolium multiflorum; for pest or weed control at 62 g/ha: 62 g ai/ha; for pest or weed control at 125 g/ha: 125 g ai/ha; for pest or weed control at 250 g/ha: 250 g ai/ha; for pest or weed control at 500 g/ha: 500 g ai/ha
From the text: (§1) Seeds of plant species selected from blackgrass (Alopecurus myosuroides), Italian ryegrass (Lolium multiflorum), winter wheat (Triticum aestivum), galium (catchweed bedstraw, Galium aparine), corn (Zea mays), large (Lg) crabgrass (Digitaria sanguinalis), giant foxtail (Setaria faberii), johnsongrass (Sorghum halepense), lambsquarters (Chenopodium album), morningglory (Ipomoea coccinea), yellow nutsedge (Cyperus esculentus), pigweed (Amaranthus retroflexus), ragweed (common ragweed, Ambrosia elatior), soybean (Glycine max), barnyardgrass (Echinochloa crus-galli), oilseed rape (Brassica napus), waterhemp (common waterhemp, Amaranthus rudis), and velvetleaf (Abutilon theophrasti) were planted into a blend of loam soil and sand and treated preemergence with test chemicals formulated in a non-phytotoxic solvent mixture which included a surfactant.
(§2) At the same time, plants selected from these crop and weed species and also winter barley (Hordeum vulgare), bermudagrass (Cynodon dactylon), downy bromegrass (Bromus tectorum), canarygrass (Phalaris minor), cocklebur (common cocklebur, Xanthium strumarium), woolly cupgrass (Eriochloa villosa), deadnettle (henbit deadnettle, Lamium amplexicaule), green foxtail (Setaria viridis), goosegrass (Eleusine indica), surinam grass (Brachiaria decumbens), windgrass (Apera spica-venti), chickweed (common chickweed, Stellaria media), kochia (Kochia scoparia), and wild oat (Avena fatua), were planted in pots containing Redi-Earth® planting medium (Scotts Company, 14111 Scottslawn Road, Marysville, Ohio 43041) comprising spaghnum peat moss, vermiculite, wetting agent and starter nutrients and treated with postemergence applications of test chemicals formulated in the same manner. Plants ranged in height from 2 to 18 cm (1- to 4-leaf stage) for postemergence treatments. Treated plants and controls were maintained in a greenhouse for 13 to 15 days, after which time all species were compared to controls and visually evaluated. Plant response ratings, summarized in Table C, are based on a scale of 0 to 100 where 0 is no effect and 100 is complete control. A dash (-) response means no test result.

[2] = test system: blackgrass (Alopecurus myosuroides); details: Alopecurus myosuroides; for pest or weed control at 62 g/ha: 62 g ai/ha; for pest or weed control at 125 g/ha: 125 g ai/ha; for pest or weed control at 250 g/ha: 250 g ai/ha; for pest or weed control at 500 g/ha: 500 g ai/ha
From the text: as §1, §2

corn (Zea mays) = details: Zea mays; for Corn plant response rating (crop injury, 0 = no effect, 100 = complete kill) at 250 g/ha: 250 g ai/ha; for Corn plant response rating (crop injury, 0 = no effect, 100 = complete kill) at 500 g/ha: 500 g ai/ha
From the text: as §1, §2

[3] = test system: giant foxtail (Setaria faberii); details: Setaria faberi; for pest or weed control at 62 g/ha: 62 g ai/ha; for pest or weed control at 125 g/ha: 125 g ai/ha; for pest or weed control at 250 g/ha: 250 g ai/ha; for pest or weed control at 500 g/ha: 500 g ai/ha
From the text: as §1, §2

[4] = test system: johnsongrass (Sorghum halepense); details: Sorghum halepense; for pest or weed control at 62 g/ha: 62 g ai/ha; for pest or weed control at 125 g/ha: 125 g ai/ha; for pest or weed control at 250 g/ha: 250 g ai/ha; for pest or weed control at 500 g/ha: 500 g ai/ha
From the text: as §1, §2

[5] = test system: lambsquarters (Chenopodium album); details: Chenopodium album; for pest or weed control at 62 g/ha: 62 g ai/ha; for pest or weed control at 125 g/ha: 125 g ai/ha; for pest or weed control at 250 g/ha: 250 g ai/ha; for pest or weed control at 500 g/ha: 500 g ai/ha
From the text: as §1, §2

[6] = test system: large (Lg) crabgrass (Digitaria sanguinalis); details: Digitaria sanguinalis, post-emergence, Postemergence
From the text: as §1, §2

[7] = post-emergence, Postemergence, read-out: Plant response rating (0 to 100), Ryegrass, Italian
[8] = post-emergence, Postemergence, scale 0 to 100
[9] = pre-emergence, Preemergence, read-out: Plant response rating, Ryegrass, Italian
[10] = pre-emergence, Preemergence, read-out: Plant response rating, Blackgrass
[11] = post-emergence, Postemergence, read-out: Plant response rating (0 to 100), Foxtail, Giant
[12] = pre-emergence, Preemergence, read-out: Plant response rating, Foxtail, Giant
[13] = post-emergence, Postemergence, read-out: Plant response rating (0 to 100), Johnsongrass
[14] = pre-emergence, Preemergence, read-out: Plant response rating, Johnsongrass
[15] = post-emergence, Postemergence, read-out: Plant response rating (0 to 100), Lambsquarters
[16] = pre-emergence, Preemergence, read-out: Plant response rating, Lambsquarters

SMILES: COC(OC)(c1ccccc1)c1c[nH]nc1-c1cc(Cl)cc(Cl)c1 [Compound 13, 3-(3,5-dichlorophenyl)-4-(dimethoxyphenylmethyl)-1H-pyrazole]
- pest or weed control at 62 g/ha [1, 7]: 0%
- pest or weed control at 125 g/ha [1, 7]: 0%
- pest or weed control at 250 g/ha [1, 8]: 0%
- pest or weed control at 500 g/ha [1, 8]: 0%
- pest or weed control at 62 g/ha [1, 9]: 0%
- pest or weed control at 125 g/ha [1, 9]: 0%
- pest or weed control at 250 g/ha ([1]; pre-emergence, Preemergence): 0%
- pest or weed control at 500 g/ha ([1]; pre-emergence, Preemergence): 0%
- pest or weed control at 62 g/ha ([2]; post-emergence, Postemergence, read-out: Plant response rating (0 to 100), Blackgrass): 5%
- pest or weed control at 125 g/ha ([2]; post-emergence, Postemergence, scale 0 to 100, read-out: Plant response rating, Blackgrass): 0%
- pest or weed control at 250 g/ha [2, 8]: 0%
- pest or weed control at 500 g/ha [2, 8]: 0%
- pest or weed control at 62 g/ha [2, 10]: 10%
- pest or weed control at 125 g/ha [2, 10]: 10%
- pest or weed control at 250 g/ha ([2]; pre-emergence, Preemergence): 50%
- pest or weed control at 500 g/ha ([2]; pre-emergence, Preemergence): 40%
- plant injury at 62 g/ha (corn (Zea mays); post-emergence, Postemergence, 62 g ai/ha): 0%
- plant injury at 125 g/ha (corn (Zea mays); post-emergence, Postemergence, 125 g ai/ha): 0%
- Corn plant response rating (crop injury, 0 = no effect, 100 = complete kill) at 250 g/ha (corn (Zea mays); [8]): 0%
- Corn plant response rating (crop injury, 0 = no effect, 100 = complete kill) at 500 g/ha (corn (Zea mays); [8]): 0%
- Corn plant response rating (crop injury, 0 = no effect, 100 = complete kill) at 62 g/ha (corn (Zea mays); pre-emergence, Preemergence, 62 g ai/ha): 0%
- Corn plant response rating (crop injury, 0 = no effect, 100 = complete kill) at 125 g/ha (corn (Zea mays); pre-emergence, Preemergence, 125 g ai/ha): 0%
- Corn plant response rating (crop injury, 0 = no effect, 100 = complete kill) at 250 g/ha (corn (Zea mays); pre-emergence, Preemergence): 0%
- Corn plant response rating (crop injury, 0 = no effect, 100 = complete kill) at 500 g/ha (corn (Zea mays); pre-emergence, Preemergence): 0%
- pest or weed control at 62 g/ha [3, 11]: 0%
- pest or weed control at 125 g/ha [3, 11]: 0%
- pest or weed control at 250 g/ha [3, 8]: 0%
- pest or weed control at 500 g/ha [3, 8]: 0%
- pest or weed control at 62 g/ha [3, 12]: 0%
- pest or weed control at 125 g/ha [3, 12]: 0%
- pest or weed control at 250 g/ha ([3]; pre-emergence, Preemergence): 0%
- pest or weed control at 500 g/ha ([3]; pre-emergence, Preemergence): 0%
- pest or weed control at 62 g/ha [4, 13]: 0%
- pest or weed control at 125 g/ha [4, 13]: 0%
- pest or weed control at 250 g/ha [4, 8]: 0%
- pest or weed control at 500 g/ha [4, 8]: 0%
- pest or weed control at 62 g/ha [4, 14]: 0%
- pest or weed control at 125 g/ha [4, 14]: 0%
- pest or weed control at 250 g/ha ([4]; pre-emergence, Preemergence): 0%
- pest or weed control at 500 g/ha ([4]; pre-emergence, Preemergence): 0%
- pest or weed control at 62 g/ha [5, 15]: 75%
- pest or weed control at 125 g/ha [5, 15]: 80%
- pest or weed control at 250 g/ha [5, 8]: 98%
- pest or weed control at 500 g/ha [5, 8]: 98%
- pest or weed control at 62 g/ha [5, 16]: 100%
- pest or weed control at 125 g/ha [5, 16]: 100%
- pest or weed control at 250 g/ha ([5]; pre-emergence, Preemergence): 100%
- pest or weed control at 500 g/ha ([5]; pre-emergence, Preemergence): 100%
- pest or weed control at 62 g/ha ([6]; 62 g ai/ha, read-out: Plant response rating (0 to 100), Crabgrass, Large): 0%
- pest or weed control at 125 g/ha ([6]; 125 g ai/ha, read-out: Plant response rating (0 to 100), Crabgrass, Large): 10%
- pest or weed control at 250 g/ha ([6]; 250 g ai/ha, scale 0 to 100): 10%
